Test results published in ChEMBL document CHEMBL1909046, “DrugMatrix in vitro pharmacology data”.

Key:
[1] = target: T1, Vasoactive intestinal polypeptide receptor 1 (Homo sapiens, UniProt P32241); type: cell membranes, Membrane; settings: ht-29; note: in other assays of this panel Not Active means under 50% inhibition at 10 µM
T1 sequence (P32241 whole entry): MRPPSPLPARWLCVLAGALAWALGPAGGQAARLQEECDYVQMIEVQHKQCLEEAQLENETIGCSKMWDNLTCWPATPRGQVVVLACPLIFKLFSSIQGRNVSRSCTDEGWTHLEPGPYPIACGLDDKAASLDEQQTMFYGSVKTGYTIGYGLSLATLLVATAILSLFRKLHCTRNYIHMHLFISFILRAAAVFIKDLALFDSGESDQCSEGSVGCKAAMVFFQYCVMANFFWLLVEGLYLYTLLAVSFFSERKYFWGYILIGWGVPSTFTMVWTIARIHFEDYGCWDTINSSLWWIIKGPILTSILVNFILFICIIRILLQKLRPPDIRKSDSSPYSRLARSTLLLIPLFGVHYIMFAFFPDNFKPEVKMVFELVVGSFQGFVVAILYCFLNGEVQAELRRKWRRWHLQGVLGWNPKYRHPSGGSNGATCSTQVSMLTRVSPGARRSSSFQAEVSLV

[2] = target: T2, C-C chemokine receptor type 4 (Homo sapiens, UniProt P51679); type: cell membranes, Membrane; settings: chem-1; note: in other assays of this panel Not Active means under 50% inhibition at 10 µM
T2 sequence (P51679 whole entry): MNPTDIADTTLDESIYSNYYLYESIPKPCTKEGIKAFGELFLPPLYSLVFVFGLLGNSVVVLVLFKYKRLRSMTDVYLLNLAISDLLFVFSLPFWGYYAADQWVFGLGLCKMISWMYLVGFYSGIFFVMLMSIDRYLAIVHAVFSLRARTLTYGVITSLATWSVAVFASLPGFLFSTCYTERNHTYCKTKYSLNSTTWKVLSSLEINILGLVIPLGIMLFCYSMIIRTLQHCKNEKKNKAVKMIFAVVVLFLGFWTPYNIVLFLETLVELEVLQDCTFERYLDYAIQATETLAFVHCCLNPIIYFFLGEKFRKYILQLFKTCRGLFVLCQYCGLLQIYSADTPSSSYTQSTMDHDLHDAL

Insulin receptor = Insulin receptor (Rattus norvegicus, UniProt P15127); type: cell membranes, Wistar, Liver, Membrane; note: in other assays of this panel Not Active means under 50% inhibition at 10 µM
Insulin receptor, sequence (P15127 27-759 limits assumed): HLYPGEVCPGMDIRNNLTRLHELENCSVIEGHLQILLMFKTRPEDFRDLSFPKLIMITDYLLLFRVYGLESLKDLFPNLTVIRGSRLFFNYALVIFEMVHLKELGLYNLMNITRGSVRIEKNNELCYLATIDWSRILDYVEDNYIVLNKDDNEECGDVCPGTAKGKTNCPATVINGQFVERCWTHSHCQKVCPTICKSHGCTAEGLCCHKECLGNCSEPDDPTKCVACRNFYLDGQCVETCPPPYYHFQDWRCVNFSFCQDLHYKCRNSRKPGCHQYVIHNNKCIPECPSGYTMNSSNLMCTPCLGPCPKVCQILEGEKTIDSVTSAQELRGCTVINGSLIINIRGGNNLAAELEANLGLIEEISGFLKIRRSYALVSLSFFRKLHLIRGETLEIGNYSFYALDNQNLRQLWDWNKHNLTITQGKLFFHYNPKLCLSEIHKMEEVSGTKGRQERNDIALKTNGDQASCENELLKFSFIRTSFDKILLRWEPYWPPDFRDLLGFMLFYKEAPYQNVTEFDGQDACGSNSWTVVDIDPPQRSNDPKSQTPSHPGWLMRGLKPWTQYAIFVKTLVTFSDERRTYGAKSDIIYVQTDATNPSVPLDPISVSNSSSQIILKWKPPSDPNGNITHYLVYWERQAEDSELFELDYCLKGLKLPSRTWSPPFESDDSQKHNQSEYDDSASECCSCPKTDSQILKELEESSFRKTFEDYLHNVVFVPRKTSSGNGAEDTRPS
Insulin receptor, sequence (P15127 764-1383 limits assumed): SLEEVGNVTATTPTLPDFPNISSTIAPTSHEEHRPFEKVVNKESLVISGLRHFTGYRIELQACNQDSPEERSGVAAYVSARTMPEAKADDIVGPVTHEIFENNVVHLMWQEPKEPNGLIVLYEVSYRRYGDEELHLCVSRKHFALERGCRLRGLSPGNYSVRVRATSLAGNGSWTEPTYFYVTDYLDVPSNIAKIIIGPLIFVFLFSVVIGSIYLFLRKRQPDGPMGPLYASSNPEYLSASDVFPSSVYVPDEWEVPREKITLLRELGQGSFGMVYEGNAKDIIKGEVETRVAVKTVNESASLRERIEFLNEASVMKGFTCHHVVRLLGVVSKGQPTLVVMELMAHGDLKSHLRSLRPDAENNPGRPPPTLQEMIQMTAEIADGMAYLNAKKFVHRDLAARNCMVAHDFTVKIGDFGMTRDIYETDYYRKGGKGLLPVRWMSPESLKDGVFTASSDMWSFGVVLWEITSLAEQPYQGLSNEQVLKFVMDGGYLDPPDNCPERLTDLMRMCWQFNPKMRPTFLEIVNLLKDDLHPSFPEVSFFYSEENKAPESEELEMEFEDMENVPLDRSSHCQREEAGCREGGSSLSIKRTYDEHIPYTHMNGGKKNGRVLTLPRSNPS

[3] = DRUGMATRIX: Nicotinic Acetylcholine radioligand binding (ligand: [125I] Epibatidine); type: cell membranes, Membrane; settings: imr-32; Not Active = under 50% inhibition at 10 µM
[4] = target: T3, Receptor-type tyrosine-protein phosphatase C (Homo sapiens, UniProt P08575); design: species or system Escherichia coli;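 note: inhibition of CD45 enzyme activity measured using DiFMUP as substrate; in other assays of this panel Not Active means under 50% inhibition at 10 µM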
T3 sequence (P08575 whole entry): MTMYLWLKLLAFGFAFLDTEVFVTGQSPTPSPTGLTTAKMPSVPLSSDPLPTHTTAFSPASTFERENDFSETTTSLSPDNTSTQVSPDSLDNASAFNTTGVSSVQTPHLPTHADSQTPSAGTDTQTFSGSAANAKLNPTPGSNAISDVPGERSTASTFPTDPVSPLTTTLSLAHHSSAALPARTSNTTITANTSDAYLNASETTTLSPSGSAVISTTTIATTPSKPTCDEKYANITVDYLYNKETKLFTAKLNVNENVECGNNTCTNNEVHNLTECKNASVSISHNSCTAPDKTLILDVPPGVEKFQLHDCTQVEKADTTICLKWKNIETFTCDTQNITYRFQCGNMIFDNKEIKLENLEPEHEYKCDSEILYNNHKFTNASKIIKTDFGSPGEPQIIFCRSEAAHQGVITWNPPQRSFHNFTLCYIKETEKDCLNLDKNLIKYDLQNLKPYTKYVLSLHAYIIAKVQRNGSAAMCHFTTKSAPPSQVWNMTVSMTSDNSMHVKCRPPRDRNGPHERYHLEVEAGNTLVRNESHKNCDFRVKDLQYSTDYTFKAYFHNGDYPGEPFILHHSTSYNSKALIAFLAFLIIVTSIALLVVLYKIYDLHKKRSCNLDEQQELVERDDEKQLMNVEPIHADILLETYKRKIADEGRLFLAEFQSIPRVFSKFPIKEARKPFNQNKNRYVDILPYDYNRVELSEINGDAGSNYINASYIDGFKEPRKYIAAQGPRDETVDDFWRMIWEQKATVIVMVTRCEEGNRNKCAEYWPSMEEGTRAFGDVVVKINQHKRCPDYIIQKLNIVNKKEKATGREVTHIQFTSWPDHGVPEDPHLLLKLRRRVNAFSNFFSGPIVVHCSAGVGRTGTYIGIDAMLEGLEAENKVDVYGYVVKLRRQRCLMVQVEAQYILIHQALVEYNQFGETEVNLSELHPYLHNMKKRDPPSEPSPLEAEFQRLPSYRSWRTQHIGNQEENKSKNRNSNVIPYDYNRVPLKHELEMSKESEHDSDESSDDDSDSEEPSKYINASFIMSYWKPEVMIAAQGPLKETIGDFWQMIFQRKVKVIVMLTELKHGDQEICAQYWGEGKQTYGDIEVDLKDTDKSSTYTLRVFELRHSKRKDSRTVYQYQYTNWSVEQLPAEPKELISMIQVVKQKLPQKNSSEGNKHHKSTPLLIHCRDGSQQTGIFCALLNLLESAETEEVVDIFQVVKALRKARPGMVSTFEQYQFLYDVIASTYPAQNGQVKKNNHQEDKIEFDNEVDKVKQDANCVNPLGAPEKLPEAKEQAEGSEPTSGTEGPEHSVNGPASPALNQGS

[5] = DRUGMATRIX: Purinergic P2X radioligand binding (ligand: [3H] alpha, beta-Methylene-ATP); type: cell membranes, Oryctolagus cuniculus, New Zealand albino, Urinary bladder, Membrane; settings: Not Active = under 50% inhibition at 10 µM

COC(=O)CCc1ccc(OCC(O)CNC(C)C)cc1 (stereo unspecified) [ESMOLOL]
Not Active: IC50 [1] | IC50 [2] | IC50 (Insulin receptor) | IC50 [3] | Ki [3] | IC50 [4] | IC50 [5] | Ki [5]

CC(C)=CCC/C(C)=C/CO [GERANIOL]
Not Active: IC50 [1] | IC50 [2] | IC50 (Insulin receptor) | IC50 [3] | Ki [3] | IC50 [4] | IC50 [5] | Ki [5]

NCCCC(O)(P(=O)(O)O)P(=O)(O)O [ALENDRONIC ACID]
Not Active: IC50 [1] | IC50 [2] | IC50 (Insulin receptor) | IC50 [3] | Ki [3] | IC50 [4] | IC50 [5] | Ki [5]

COC(=O)Nc1nc2ccc(C(=O)c3cccs3)cc2[nH]1 [NOCODAZOLE]
Not Active: IC50 [1] | IC50 [2] | IC50 (Insulin receptor) | IC50 [3] | Ki [3] | IC50 [4] | IC50 [5] | Ki [5]

C[C@H]1O[C@@H](n2cc(F)c(=O)[nH]c2=O)[C@H](O)[C@@H]1O [DOXIFLURIDINE]
Not Active: IC50 [1] | IC50 [2] | IC50 (Insulin receptor) | IC50 [3] | Ki [3] | IC50 [4] | IC50 [5] | Ki [5]

NNc1nncc2ccccc12 [HYDRALAZINE]
Not Active: IC50 [1] | IC50 [2] | IC50 (Insulin receptor) | IC50 [3] | Ki [3] | IC50 [4] | IC50 [5] | Ki [5]

C[C@@H]1C[C@H]2[C@@H]3CCC4=CC(=O)C=C[C@]4(C)[C@@]3(F)[C@@H](O)C[C@]2(C)[C@H]1C(=O)CO [DESOXIMETASONE]
Not Active: IC50 [1] | IC50 [2] | IC50 (Insulin receptor) | IC50 [3] | Ki [3] | IC50 [4] | IC50 [5] | Ki [5]

CCn1cc(C(=O)O)c(=O)c2cnc(N3CCCC3)nc21 [PIROMIDIC ACID]
Not Active: IC50 [1] | IC50 [2] | IC50 (Insulin receptor) | IC50 [3] | Ki [3] | IC50 [4] | IC50 [5] | Ki [5]

CC1(C)S[C@@H]2[C@H](NC(=O)[C@H](N)c3ccccc3)C(=O)N2[C@H]1C(=O)O [AMPICILLIN]
Not Active: IC50 [1] | IC50 [2] | IC50 (Insulin receptor) | IC50 [3] | Ki [3] | IC50 [4] | IC50 [5] | Ki [5]

CC(=O)[C@@]1(O)CC[C@H]2[C@@H]3CCC4=CC(=O)CC[C@]4(C)[C@H]3CC[C@@]21C [HYDROXYPROGESTERONE]
Not Active: IC50 [1] | IC50 [2] | IC50 (Insulin receptor) | IC50 [3] | Ki [3] | IC50 [4] | IC50 [5] | Ki [5]

Oc1c(Cl)cc(Cl)c(Cl)c1Cc1c(O)c(Cl)cc(Cl)c1Cl [HEXACHLOROPHENE]
Not Active: IC50 [1] | IC50 [2] | IC50 (Insulin receptor) | IC50 [3] | Ki [3] | IC50 [4] | IC50 [5] | Ki [5]

O=C1O[C@H]([C@@H](O)CO)C(O)=C1O [ASCORBIC ACID]
Not Active: IC50 [1] | IC50 [2] | IC50 (Insulin receptor) | IC50 [3] | Ki [3] | IC50 [4] | IC50 [5] | Ki [5]

Brc1c(NC2=NCCN2)ccc2nccnc12 [BRIMONIDINE]
Not Active: IC50 [1] | IC50 [2] | IC50 (Insulin receptor) | IC50 [3] | Ki [3] | IC50 [4] | IC50 [5] | Ki [5]

COc1ccc(C(=O)N2CCCC2=O)cc1
Not Active: IC50 [1] | IC50 [2] | IC50 (Insulin receptor) | IC50 [3] | Ki [3] | IC50 [4] | IC50 [5] | Ki [5]

C[C@@H]1C[C@H]2[C@@H]3CCC4=CC(=O)C=C[C@]4(C)[C@@]3(F)[C@@H](O)C[C@]2(C)[C@@]1(O)C(=O)CO [DEXAMETHASONE]
Not Active: IC50 [1] | IC50 [2] | IC50 (Insulin receptor) | IC50 [3] | Ki [3] | IC50 [4] | IC50 [5] | Ki [5]

Cc1c(OCC(F)(F)F)ccnc1C[S+]([O-])c1nc2ccccc2[nH]1 (stereo unspecified) [LANSOPRAZOLE]
Not Active: IC50 [1] | IC50 [2] | IC50 (Insulin receptor) | IC50 [3] | Ki [3] | IC50 [4] | IC50 [5] | Ki [5]

CCCOc1ccc(C(=O)OCCN(CC)CC)cc1N [PROPARACAINE]
Not Active: IC50 [1] | IC50 [2] | IC50 (Insulin receptor) | IC50 [3] | Ki [3] | IC50 [4] | IC50 [5] | Ki [5]

CN(C)CC[C@@H](c1ccc(Cl)cc1)c1ccccn1 [DEXCHLORPHENIRAMINE]
Not Active: IC50 [1] | IC50 [2] | IC50 (Insulin receptor) | IC50 [3] | Ki [3] | IC50 [4] | IC50 [5] | Ki [5]

C[C@@H]1O[C@@H](O[C@@H]2C=C3CC[C@@H]4[C@H](CC[C@]5(C)[C@@H](c6ccc(=O)oc6)CC[C@]45O)[C@@]3(C)CC2)[C@H](O)[C@H](O)[C@H]1O [PROSCILLARIDIN]
Not Active: IC50 [1] | IC50 [2] | IC50 (Insulin receptor) | IC50 [3] | Ki [3] | IC50 [4] | IC50 [5] | Ki [5]

CN(C)[C@@H]1C(O)=C(C(N)=O)C(=O)[C@@]2(O)C(O)=C3C(=O)c4c(O)ccc(Cl)c4[C@@](C)(O)[C@H]3C[C@@H]12 [CHLORTETRACYCLINE]
Not Active: IC50 [1] | IC50 [2] | IC50 (Insulin receptor) | IC50 [3] | Ki [3] | IC50 [4] | IC50 [5] | Ki [5]

C[C@@H](CO)NC(=O)[C@@H]1C=C2c3cccc4[nH]cc(c34)C[C@H]2N(C)C1 [ERGONOVINE]
Not Active: IC50 [1] | IC50 [2] | IC50 (Insulin receptor) | IC50 [3] | Ki [3] | IC50 [4] | IC50 [5] | Ki [5]

CCC1(CCC(C)C)C(=O)NC(=O)NC1=O [AMOBARBITAL]
Not Active: IC50 [1] | IC50 [2] | IC50 (Insulin receptor) | IC50 [3] | Ki [3] | IC50 [4] | IC50 [5] | Ki [5]
